Data on 3 compounds can be found in the NIST ThermoML archive (doi:10.1021/je200651r).

Data set [1] can be described thus: refractive index (Na D-line) (dimensionless). The note with it: 298.15 K; 101.33 kPa; Liquid; Standard Abbe refractometry.
The conditions of data set [2]: Liquid, Manometric method.

Numbers after ± are expanded uncertainties.

On to `ClCCCCl` [1,3-dichloropropane], for which, in data set [1], the refractive index (commonly a measure of how strongly the sample bends light) is 1.4462 ± 0.0008. In addition, the vapor or sublimation pressure (as a rule, the equilibrium pressure above the liquid or solid) came to 18.31 ± 0.19 kPa in data set [2] (343.15 K), 26.84 ± 0.22 kPa in data set [2] (353.15 K) and 38.65 ± 0.27 kPa in data set [2] (363.15 K).
The corresponding values for `CC[N+](=O)[O-]` [nitroethane] are 1.3898 ± 0.0009, 22.46 ± 0.23 kPa, 32.84 ± 0.29 kPa and 47.13 ± 0.37 kPa.
For `C[N+](=O)[O-]` [nitromethane], in data set [1], the refractive index is given as 1.3794 ± 0.0009. Also, the “vapor or sublimation pressure” value in data set [2] (343.15 K) is 34.93 ± 0.31 kPa; in data set [2] (353.15 K), 50.14 ± 0.41 kPa; in data set [2] (363.15 K), 70.81 ± 0.53 kPa.
